Values quoted from earlier work in US20060094833A1, “Shock resistant cyanoacrylate compositions” (LOCTITE (R&D) LIMITED, priority 2004, published 2006).

Details: for pKa 1: first acid group; for pKa 2: second acid group; for pKa 3: third acid group; for pKa 4: fourth

SMILES | pKa 1 | pKa 2 | pKa 3 | pKa 4
O.O=C(O)c1cccc(C(=O)O)c1C(=O)O [1,2,3-Benzene tricarboxylic acid hydrate] | 2.52 | 4.00 | 6.12 | –
O=C(O)CC(O)(CC(=O)O)C(=O)O [Citric acid] | 2.93 | 4.23 | 5.09 | 16.13
O=C(O)CC(C(=O)O)C(CC(=O)O)C(=O)O (centres unmarked) [1,2,3,4-Butane tetracarboxylic acid] | 3.25 | 4.51 | 5.02 | 6.54
O=C(O)c1ccc2c(c1)C(=O)OC2=O [1,2,4-Benzene tricarboxylic anhydride] | 3.33 | – | – | –

Now from value to molecule:

pKa 1 | pKa 2 | pKa 3 | pKa 4 | SMILES
4.31 | 4.82 | 5.21 | – | O=C(O)CC(CC(=O)O)C(=O)O [1,2,3-Propane tricarboxylic acid]
– | 3.83 | – | – | O=C(O)c1ccc(C(=O)O)c(C(=O)O)c1 [1,2,4-Benzene tricarboxylic acid]
– | 2.71 | 4.97 | 5.80 | O=C(O)c1cc(C(=O)O)c(C(=O)O)cc1C(=O)O [1,2,4,5-Benzene tetracarboxylic acid]
2.97 | 4.34 | 4.99 | – | O=C(O)C=C(CC(=O)O)C(=O)O [1,2,3-Propene tricarboxylic acid]
2.65 | – | – | – | CC(=O)C(=O)O [Pyruvic acid]
